From patent US11116760B2 (Gilead Sciences, Inc., priority 2018, dated 2021)

Target: α4β7 integrin (Homo sapiens (Human), UniProt P13612+P26010)
Experiment: α4β7 Integrin Cell Capture Assay
Type: cell-based
Details: RPMI8866 cells captured on MadCAM-1 extracellular domain-coated plate

Chain of α4β7 integrin (P13612 34-1032): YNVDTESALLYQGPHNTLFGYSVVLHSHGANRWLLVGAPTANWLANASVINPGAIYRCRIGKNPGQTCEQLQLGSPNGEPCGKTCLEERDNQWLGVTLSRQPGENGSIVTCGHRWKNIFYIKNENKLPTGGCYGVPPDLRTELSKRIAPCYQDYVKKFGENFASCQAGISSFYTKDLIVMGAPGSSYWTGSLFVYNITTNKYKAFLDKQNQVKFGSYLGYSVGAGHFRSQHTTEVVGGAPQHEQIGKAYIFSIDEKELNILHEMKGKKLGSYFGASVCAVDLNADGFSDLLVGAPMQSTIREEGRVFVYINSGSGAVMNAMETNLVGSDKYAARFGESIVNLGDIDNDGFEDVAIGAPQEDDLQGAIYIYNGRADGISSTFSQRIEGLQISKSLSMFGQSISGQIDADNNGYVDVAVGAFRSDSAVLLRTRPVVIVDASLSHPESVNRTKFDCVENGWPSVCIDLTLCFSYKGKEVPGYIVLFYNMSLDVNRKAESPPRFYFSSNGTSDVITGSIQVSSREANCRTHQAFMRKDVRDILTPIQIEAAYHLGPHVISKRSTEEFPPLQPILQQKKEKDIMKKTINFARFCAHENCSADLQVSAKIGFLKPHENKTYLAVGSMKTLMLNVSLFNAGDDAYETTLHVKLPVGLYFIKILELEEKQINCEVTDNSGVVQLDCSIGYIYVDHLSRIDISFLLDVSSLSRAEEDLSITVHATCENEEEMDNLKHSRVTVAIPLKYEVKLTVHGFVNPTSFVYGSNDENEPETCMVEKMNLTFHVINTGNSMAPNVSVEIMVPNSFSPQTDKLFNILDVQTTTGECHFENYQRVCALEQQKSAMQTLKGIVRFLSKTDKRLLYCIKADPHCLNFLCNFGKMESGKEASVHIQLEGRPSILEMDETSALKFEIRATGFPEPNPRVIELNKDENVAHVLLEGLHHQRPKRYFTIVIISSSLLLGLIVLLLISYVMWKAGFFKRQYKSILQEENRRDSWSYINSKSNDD
Chain of α4β7 integrin (P26010 20-798): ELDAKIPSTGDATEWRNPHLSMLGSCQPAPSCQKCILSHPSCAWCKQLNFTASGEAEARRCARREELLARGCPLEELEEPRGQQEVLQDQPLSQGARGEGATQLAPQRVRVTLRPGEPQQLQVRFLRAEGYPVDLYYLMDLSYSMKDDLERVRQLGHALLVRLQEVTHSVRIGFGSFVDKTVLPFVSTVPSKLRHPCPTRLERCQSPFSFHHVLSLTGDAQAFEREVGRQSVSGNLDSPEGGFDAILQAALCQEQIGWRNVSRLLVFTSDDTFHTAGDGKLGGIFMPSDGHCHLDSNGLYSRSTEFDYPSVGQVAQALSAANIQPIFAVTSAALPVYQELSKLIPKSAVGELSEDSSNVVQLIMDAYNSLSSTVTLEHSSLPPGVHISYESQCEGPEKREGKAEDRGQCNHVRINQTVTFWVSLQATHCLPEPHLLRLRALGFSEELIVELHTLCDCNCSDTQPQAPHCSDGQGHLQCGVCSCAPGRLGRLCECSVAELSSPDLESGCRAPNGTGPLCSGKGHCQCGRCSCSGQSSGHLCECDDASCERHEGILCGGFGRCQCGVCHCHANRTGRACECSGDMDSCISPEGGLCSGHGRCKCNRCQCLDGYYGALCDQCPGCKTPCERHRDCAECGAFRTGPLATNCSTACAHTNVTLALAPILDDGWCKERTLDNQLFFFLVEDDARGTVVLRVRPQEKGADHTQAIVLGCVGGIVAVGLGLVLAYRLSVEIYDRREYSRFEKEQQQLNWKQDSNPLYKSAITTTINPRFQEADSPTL

EC50 [nM]	Compound
0.529	Cc1cc(N2CCOC[C@@H]2C(F)(F)F)cc(F)c1C(=O)N[C@@H](Cc1ccc(-n2c(=O)c3c(cnn3C)n(C)c2=O)c2ncccc12)C(=O)O [Example 413]
0.394	CN(C)c1ccc2c(c1)c(=O)n(-c1ccc(C[C@H](NC(=O)c3c(F)cc(N4CCOC[C@@H]4C(F)(F)F)cc3F)C(=O)O)c3cccnc13)c(=O)n2C [Example 478]
0.412	Cc1cc(C(F)(F)F)c(-c2ccc(C[C@H](NC(=O)c3c(F)cc(N4CCCOCC4)cc3F)C(=O)O)c3cccnc23)c(=O)n1C [Example 441]
0.984	CC[C@@]1(C)CN(c2cc(F)c(C(=O)N[C@@H](Cc3ccc(-c4c(C(F)(F)F)cc(C)n(C)c4=O)c4ncccc34)C(=O)O)c(F)c2)CCO1 [Example 445]
0.208	Cc1cc(N2CCOC[C@@H]2C(F)(F)F)cc(F)c1C(=O)N[C@@H](Cc1ccc(-c2c(C)c(Cl)cn(C)c2=O)c2ncccc12)C(=O)O [Example 451]

Same assay, conditions: Table 1; capture of α4β7 expressing RPM18866 cells on MadCAM-1 extracellular domain-coated plate

Compound	EC50 [nM]
CCOCc1cc(OC)c(-c2ccc(C[C@H](NC(=O)c3c(F)cccc3F)C(=O)O)c3cccnc23)c(OC)c1 [Example 18, (S)-2-(2,6-difluorobenzamido)-3-(8-(4-(ethoxymethyl)-2,6-dimethoxyphenyl)quinolin-5-yl)propanoic acid]	9
O=C(N[C@@H](Cc1ccc(-c2c(Cl)cncc2Cl)c2ncccc12)C(=O)O)c1c(F)cccc1F [Example 20, (S)-3-(8-(3,5-dichloropyridin-4-yl)quinolin-5-yl)-2-(2,6-difluorobenzamido)propanoic acid]	186
CS(=O)(=O)Cc1cc(F)c(C(=O)N[C@@H](Cc2ccc(-c3ccc(C#N)cc3Cl)c3ncccc23)C(=O)O)c(F)c1 [Example 48, (S)-3-(8-(2-chloro-4-cyanophenyl)quinolin-5-yl)-2-(2,6-difluoro-4-((methylsulfonyl)methyl)benzamido)propanoic acid]	52.1

Further lines, results first:

EC50 [nM]	Compound
0.6	CC[C@@H](Nc1cc(F)c(C(=O)N[C@@H](Cc2ccc(-c3c(C)c(C)c(C)n(C)c3=O)c3ncccc23)C(=O)O)c(F)c1)C(F)(F)F [Example 115, (S)-2-(2,6-difluoro-4-(((R)-1,1,1-trifluorobutan-2-yl)amino)benzamido)-3-(8-(1,4,5,6-tetramethyl-2-oxo-1,2-dihydropyridin-3-yl)quinolin-5-yl)propanoic acid]
20.5	CC[C@@H](Nc1cc(F)c(C(=O)N[C@@H](Cc2ccc(-c3nn(C)c(=O)cc3C)c3ncccc23)C(=O)O)c(F)c1)C(F)(F)F [Example 119, (S)-2-(2,6-difluoro-4-(((R)-1,1,1-trifluorobutan-2-yl)amino)benzamido)-3-(8-(1,4-dimethyl-6-oxo-1,6-dihydropyridazin-3-yl)quinolin-5-yl)propanoic acid]
80.4	N#Cc1ccc(-c2ccc(C[C@H](NC(=O)c3c(F)cc(N4CCCC[C@@H]4C(F)(F)F)cc3F)C(=O)O)c3cccnc23)c(Cl)c1 [Example 75, (S)-3-(8-(2-chloro-4-cyanophenyl)quinolin-5-yl)-2-(2,6-difluoro-4-((R)-2-(trifluoromethyl)piperidin-1-yl)benzamido)propanoic acid]
3.2	CCCNc1cc(F)c(C(=O)N[C@@H](Cc2ccc(-c3c(C(F)(F)F)cc(C)n(C)c3=O)c3ncccc23)C(=O)O)c(F)c1 [Example 133, (S)-2-(2,6-difluoro-4-(propylamino)benzamido)-3-(8-(1,6-dimethyl-2-oxo-4-(trifluoromethyl)-1,2-dihydropyridin-3-yl)quinolin-5-yl)propanoic acid]

Same assay, conditions: Table 2; capture of α4β7 expressing RPM18866 cells on MadCAM-1 extracellular domain-coated plate

Compound	EC50 [nM]
CC[C@@H](Nc1cc(F)c(C(=O)N[C@@H](Cc2ccc(-c3ncc4c(n3)CCC4)c3ncccc23)C(=O)O)c(F)c1)C(F)(F)F [Example 311]	12.3
N#Cc1ccc(-c2ccc(C[C@H](NC(=O)c3c(Cl)cc4cc(C5CC5)[nH]c4c3Cl)C(=O)O)c3cccnc23)c(Cl)c1 [Example 228]	57.8
CC[C@@H](Nc1cc(F)c(C(=O)N[C@@H](Cc2ccc(-c3nc(C)ccc3C(F)(F)F)c3ncccc23)C(=O)O)c(F)c1)C(F)(F)F [Example 289]	6.5
N#Cc1ccc(-c2ccc(C[C@H](NC(=O)c3c(F)cc(NCC(F)(F)F)cc3F)C(=O)O)c3cccnc23)c(Cl)c1 [Example 332]	23.7
O=C(N[C@@H](Cc1ccc(-c2c(Cl)cc(F)cc2OC(F)F)c2ncccc12)C(=O)O)c1c(F)cccc1F [Example 149]	50.3
CC[C@@H](Nc1cc(F)c(C(=O)N[C@@H](Cc2ccc(-c3ncc(C)cc3Cl)c3ncccc23)C(=O)O)c(F)c1)C(F)(F)F [Example 327]	19.3
N#Cc1ccc(-c2ccc(C[C@H](NC(=O)c3c(Cl)cc4nc(C5CC5)[nH]c4c3Cl)C(=O)O)c3cccnc23)c(Cl)c1 [Example 179]	37.7
CC[C@@H](Nc1cc(F)c(C(=O)N[C@@H](Cc2ccc(-c3nc(C)c4ccc(F)cc4n3)c3ncccc23)C(=O)O)c(F)c1)C(F)(F)F [Example 258]	3.6
N#Cc1ccc(-c2ccc(C[C@H](NC(=O)c3c(Cl)cc4[nH]ccc4c3Cl)C(=O)O)c3cccnc23)c(Cl)c1 [Example 246]	34.3
COCCNC(=O)c1cc(F)c(C(=O)N[C@@H](Cc2ccc(-c3ccc(C#N)cc3Cl)c3ncccc23)C(=O)O)c(F)c1 [Example 178]	37.1

Second part, the molecule after the results:

EC50 [nM]	Compound
3.2	CC[C@@H](Nc1cc(F)c(C(=O)N[C@H](Cc2ccc(-c3c(C(F)(F)F)cc(C)n(C)c3=O)c3ncccc23)C(=O)O)c(F)c1)C(F)(F)F [Example 253]
82.2	N#Cc1ccc(-c2ccc(C[C@H](NC(=O)c3c(F)cc(N4CCCCC4)cc3F)C(=O)O)c3cccnc23)c(Cl)c1 [Example 278]
11.9	O=C(N[C@@H](Cc1ccc(-c2c(C(F)(F)F)cc3n(c2=O)CCC3)c2ncccc12)C(=O)O)c1c(Cl)cccc1Cl [Example 308]
0.6	CC[C@@H](Nc1cc(F)c(C(=O)N[C@@H](Cc2ccc(-c3c(OC)cc(C)n(C)c3=O)c3ncccc23)C(=O)O)c(F)c1)C(F)(F)F [Example 341]
1.7	Cc1cc(C(F)(F)F)c(-c2ccc(C[C@H](NC(=O)c3c(F)cc(N4C[C@H](C)OC[C@@H]4C)cc3F)C(=O)O)c3cccnc23)c(=O)n1C [Example 204]
4.5	CCC(CC)Nc1cc(F)c(C(=O)N[C@@H](Cc2ccc(-c3c(C(F)(F)F)cc(C)n(C)c3=O)c3ncccc23)C(=O)O)c(F)c1 [Example 272]
2.2	O=C(N[C@@H](Cc1ccc(-c2nccc(OC3CC3)c2C(F)(F)F)c2ncccc12)C(=O)O)c1c(F)cc(N2CCOC[C@@H]2C(F)(F)F)cc1F [Example 233]
